# Measured values taken from patent publication US9416162B2, “Peptides having reduced toxicity that stimulate cholesterol efflux” (The Regents of the University of California, priority 2013, dated 2016).
# Non-standard residues stand in square brackets, D forms with d. No end group written: not given here. Cit = NC(=O)NCCC[C@H](N)C(=O)O
# Experiments:
# [1] = system: C57Bl/6 mice; assay: Safety and TG elevating effects after IP injection in C57Bl/6 mice (plasma CPK, ALT, AST, lipids); assay type: in vivo
# Protocol: The high-dose cytotoxic response of ATI-5261 observed in rat, rabbit and cynomolgus monkey is additionally recapitulated in mice (FIG. 4). Male chow-fed C57bl/6 mice were injected intraperitonelly (IP) with 30 or 300 mg/kg of lipid-fee ATI-5261. Blood was collected via the retro-orbital plexus 4 h after peptide injection and plasma subsequently obtained for measurement of CPK (Panel A) and ALT and AST activities (Panel B, ALT left bars; AST, right bars). Values are means±SD, n=4 mice per group.
# This example illustrates that aromatic phenylalanine residues associated with the non-polar surface of ATI-5261 contributed to the majority of the peptide toxicity (FIG. 5). […] Blood was collected via retro-orbital plexus 4 h after injection for isolation of plasma. Levels of plasma CPK (Panel A), ALT (panel B) and AST (Panel C) were determined as described in FIG. 1. Values are means±SD, n=4 mice per group.
# All values (mg/dl) are means±SD, n=4, determined at 4 and 6 h post treatment with peptide.
# [2] = biological target: T1, SR-B1 (Rattus norvegicus, UniProt P97943); assay: SR-B1 mediated cholesterol efflux from Fu5AH cells; assay type: cell-based; settings: 50 μg peptide/ml serum-free medium
# T1 construct: endogenous in cells; host or cells: Fu5AH cells
# T1 sequence (P97943 1-509): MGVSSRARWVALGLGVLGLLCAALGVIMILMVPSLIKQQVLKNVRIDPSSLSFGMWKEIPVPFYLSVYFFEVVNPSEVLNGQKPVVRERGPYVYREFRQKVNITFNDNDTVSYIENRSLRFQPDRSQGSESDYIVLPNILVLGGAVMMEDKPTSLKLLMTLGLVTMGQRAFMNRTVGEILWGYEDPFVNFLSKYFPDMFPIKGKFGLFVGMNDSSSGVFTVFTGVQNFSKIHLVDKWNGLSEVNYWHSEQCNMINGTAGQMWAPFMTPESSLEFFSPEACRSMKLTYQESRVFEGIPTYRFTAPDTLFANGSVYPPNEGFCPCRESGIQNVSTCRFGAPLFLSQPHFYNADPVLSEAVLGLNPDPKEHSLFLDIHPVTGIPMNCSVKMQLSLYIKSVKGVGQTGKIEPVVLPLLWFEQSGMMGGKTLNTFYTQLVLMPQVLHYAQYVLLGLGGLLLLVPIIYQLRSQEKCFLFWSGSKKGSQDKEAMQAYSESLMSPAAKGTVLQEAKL
# Protocol: To further evaluate potential anti-atherogenic mechanisms of CS6253, Fu5AH cells labeled with [3H]cholesterol were used in efflux experiments. The citrulline form of LeuATI-5261 (CS6253) lipidated with POPC was used as a cholesterol efflux acceptor at 50 μg peptide/ml serum-free medium. Panel A-Time-course for SR-B1 mediated cholesterol efflux from cells. […] Panel B—Comparison between CS6253 and ATI-5261 in mediating cellular cholesterol efflux via SRB1. [3H]cholesterol labeled Fu5AH cells were incubated with either lipid-free acceptors or acceptors formulated with POPC.
# [3] = system: apoE−/− mice; assay: Atherosclerosis in apoE−/− mice on high-fat western diet, whole aorta Oil-Red O staining; assay type: in vivo, mouse
# Protocol: Male apoE^−/− mice at 8 weeks of age were fed a high-fat western diet for 14 weeks. Mice were subsequently randomized to either a control group to receive IP injection of vehicle alone or lipid-free peptide (30 mg/kg) at 48 hour intervals for 6 weeks. […] The extent of whole aorta covered with fatty lesions is shown, determined by Oil-Red O staining. Values are means±SD, n=10 mice per group.
# CS6253, another synthesis batch of T5237-4, was administered IP at 10 mg/kg for 10 weeks showing again reduction of substantial atherosclerosis in apoE^−/− mice (FIG. 36). Male apoE^−/− mice at 8 weeks of age were fed a high-fat western diet for 14 weeks. Mice were subsequently randomized to either a control group to receive IP injection of vehicle alone or lipid-free CS6253 (10 mg/kg) at 48 hour intervals for 10 weeks while the mice remained on high-fat western diet. The extent of whole aorta covered with fatty lesions is shown, determined by Oil-Red O staining. Values are means±SD, n=10 mice per group.
# CS6253 administered SC also reduce substantial atherosclerosis in apoE KO mice. Male apoE−/− mice at 8 weeks of age were fed a high-fat western diet for 14 weeks (FIG. 37). One group was terminated before treatment start as baseline control. Mice were subsequently randomized to one of 3 arms to receive subcutaneous (SC) injection alternate days for 6 weeks; vehicle alone, CS6253 30 mg/kg or CS6253 60 mg/kg. During the first 4 treatment weeks the mice remained on high-fat western diet while during the last two weeks of treatment they were switched to chow diet. The extent of whole aorta covered with fatty lesions is shown, determined by Oil-Red O staining. Values are means±SD, n=10 mice per group.
# [4] = system: hamsters; assay: Lipoprotein profile in hamsters after sc injection (ion mobility, 2D gel); assay type: in vivo, hamster
# Protocol: This example employed peptide T5237-4 EVCit[…]it[…] (SEQ ID NO:2) (Cit=citrulline). […] Following removal of albumin by centrifugations plasma was injected and lipoproteins separated with gas-phase differential electrophoretic macromolecular mobility-based method (ion mobility, or IM) (Caulfield et al. Clin Chem 2008 54:8 1307-16). […] The panel in the upper right hand corner is derived from a 2D gel separation (size and charge separation).
# [5] = hamsters, 10, 30 and 100 mg/kg sc, plasma 4 h, dose-response
Substance,"plasma TG, total and unesterified (free) cholesterol (FC) ([1]; C57Bl/6 mice, 300 mg/kg, 4 and 6 h post treatment)","cytotoxic/toxic response (plasma CPK, ALT, AST) ([1]; male chow-fed C57Bl/6 mice, IP 300 mg/kg, plasma 4 h after injection)",SR-B1 mediated cholesterol efflux [2],extent of whole aorta covered with fatty lesions ([3]; IP 10 mg/kg at 48 hour intervals for 10 weeks),extent of whole aorta covered with fatty lesions ([3]; IP 30 mg/kg at 48 hour intervals for 6 weeks),extent of whole aorta covered with fatty lesions ([3]; SC 30 mg/kg or 60 mg/kg alternate days for 6 weeks),"preβ-HDL (2D gel, apoA-I antibody) ([4]; hamsters, 100 mg/kg sc, 1 h, 2 h, and 4 h)","LDL [4, 5]","small HDL [4, 5]"
"ATI-5261: HDL mimetic peptide, parent peptide; triglyceride elevating and muscle toxic peptide used as positive control (EVRSKLEEWFAAFREFAEEFLARLKS) [reference compound]",marked increase,High levels of cytotoxic markers,–,–,–,–,–,–,–
"EVCitSKLEEWLAALCitELAEELLARLKS (SEQ ID NO:2) (EV[Cit]SKLEEWLAAL[Cit]ELAEELLARLKS) [CS6253, citrulline form of LeuATI-5261, R3,14→Citrulline, 26-mer]",–,–,relatively poor activity,reduced atherosclerosis,reduced atherosclerosis,reduced atherosclerosis,preβ-HDL increase,LDL lowering,small HDL increase
